Laboratory results reported in patent US20170260210A1, “METHOD FOR PREPARING MARMYCIN A AND ANALOGUES THEREOF, AND ALSO USES THEREOF” (Centre national de la recherche scientifique, priority 2014, published 2017).
Entries after “also recorded” stand apart in the source; their conditions may differ. Values belong to the compound of their own block, whether it stands above or below them.

How the values were obtained:
[1] = system: MDA-MB-231 cells (human breast cancer cells); assay: Cell viability assay (CellTiter-Blue) on MDA-MB-231 cells; format: cell-based
Method: MDA-MB-231 cells (human breast cancer cells) purchased from ATCC were held in McCoy's 5A medium, supplemented with 10% foetal bovine serum (FBS)) and 1× Antibiotic-Antimycotic (all from Gibco®) at 37° C. with 5% CO2.
Cell viability was measured by seeding 2000 cells per well in a 96-well plate. N-Acetyl Cystein (NAC, A9165 Sigma) or Pan-caspase zVAD-FMK inhibitor (550377 from BD pharmingen) were pre-treated for 1 hour or 30 minutes respectively before treatment with the assayed compounds. The reagent <<CellTiter-Blue® Reagent>> (20 μl/well) was added after a treatment time of 24, 48 or 72 hours, and the cells were incubated for one hour before fluorescence detection (560(20)Ex/590(10)Em) on a Perkin Elmer Wallac 1420 Victor2 Microplate Reader.
The assayed compounds were doxorubicin, marmycin A, artesunate, artesumycin and a combination of marmycin A and artesunate (cf. FIG. 9).

[2] = system: HMLER CD24- cancerous stem cell line (HMLER CD44high/CD24low); assay: Cell viability assay on HMLER CD24- cancerous stem cell line; format: cell-based, human
Method: (§1) Cell viability: cell viability was assessed using the following protocol:
(§2) Seeding 1000 cells/well in a 96-well plate. The cells were treated for 72 hours. After a treatment time of 72 hours the reagent CellTiter-Blue® Reagent (G8081, Promega) was added and the cells incubated for one hour before recording fluorescence intensities (Excitation, 560/20 nm; Emission, 590/10 nm) using a Perkin Elmer Wallac 1420 Victor2 Microplate Reader.
(§3) Cell culture: the following material was used: saline buffer <<Dulbecco's Phosphate-Buffered Saline>> (14190-094, 500 mL, Gibco), DMEM/F12 (31331-028, 500 mL, Gibco), DMEM high-glucose with UltraGlutamine (BE12-604F/U1, BioWhittaker, Lonza), McCoy's 5A medium (Modified) (26600-023, Gibco), RPMI 1640 with L-glutamine (BE12-702F/U1, BioWhittaker, Lonza), Foetal Bovine Serum—FBS, 10270-106, Gibco), Hydrocortisone (H0888, Sigma), Insulin (10516, Sigma or 19278, Sigma), BD Epidermal growth factor human recombinant (hEGF, 354052, BD Biosciences), PEN-STREP (DE17-602E, BioWhittaker, Lonza), puromycin dihydrochloride (A11138-02, 460 Life Technologies).
The human mammary epithelial cell line was infected with a retrovirus carrying hTERT, SV40 and the oncogenic allele HrasV12, called HMLER CD44high/CD24 low cells, not expressing E-cadherin and Vimentin (reference HMLER CD24low or HMLER CD44+/CD24−), courteously offered by A. Puisieux (INSERM).
(§4) The HMLER CD44^high/CD24^low cells (Cancer stem cells—CSCs), HMLER CD44^high/CD24^high (non-CSCs) were cultured in DMEM/F12 supplemented with 10% FBS, 10 μg/mL insulin, 0.5 μg/mL hydrocortisone, 10 ng/mL hEGF and 0.5 μg/mL of puromycin.

[3] = system: HMLER ID2 cancerous cell line; assay: Cell viability assay on HMLER ID2 cancerous cell line; format: cell-based, human; details: HMLER ID2 cells
Method: as §1, §2, §3
The line referenced HMLER ID2 is a hTert, SV40, HRasV12 transformed line, isogenic but non-stem.
as §4

lysosomes of U2OS cells = assay: Cell location by fluorescence (LysoTracker DND-22, GFP-Lamp1, DAPI) in U2OS cells; format: cell-based; details: U2OS cells treated 24 hours with 10 μM
Method: U2OS cells cultured to less than 40% confluence were treated for 24 hours with 10 μM of compound unless otherwise indicated. The marker LysoTracker® Blue DND-22 (L7525, Molecular Probes@) was added 30 minutes before fixing. GFP-Lamp1 was transiently transfected following the manufacturer's instructions. To summarise, […] of CellLight® Lysosomes-GFP BacMam 2.0 (C10596, Life Technologies) were mixed with […] of U2OS culture medium and added to each well of a 24-well plate. After overnight incubation (16 hours), the cells were washed and treated with Marmycin A as indicated in Example 9. For analysis by immunofluorescence, the cells were fixed 12 minutes in 2% formaldehyde/PBS, permeabilised 10 min with 0.1% Triton X/PBS and […] for 1 h with 5% BSA, 0.2% Tween-20/PBS (blocking buffer). Cover glasses were incubated with anti-LAMP1, p62, antibodies, diluted to 1/100 in the blocking buffer overnight at 4° C. The cells were then washed 3 times with 0.2% Tween-20/PBS, and incubated as described above with anti-mouse Alexa 488-conjugated secondary antibody (A11029, Invitrogen) diluted to 1/500 in blocking buffer. The cover glasses were washed as described above and mounted with VectaShield® mounting medium for analysis by fluorescence with or without DAPI (Vector Laboratories Ltd). The images were obtained with a Leica microscope […] and analysed with ImageJ software. […]

[4] = system: U2OS cells (osteosarcoma cancer line); assay: Cell proliferation/viability assay (CellTiter-Blue) on U2OS cells; format: cell-based; details: Homo sapiens, at 72 hours
Method: (§5) U2OS and A2780 cells purchased from ATCC were held in McCoy's 5A or RPMI 1640 medium respectively, supplemented with 10% foetal bovine serum (FBS)) and 1× Antibiotic-Antimycotic (all from Gibco®) at 37° C. with 5% CO2. Measurement of cell viability was carried out by seeding 2000 cells per well in a 96-well plate. N-Acetyl Cystein (NAC, A9165 Sigma) or Pan-caspase zVAD-FMK inhibitor (550377 by BD pharmingen) were pre-treated for 1 hour or 30 minutes respectively before treatment with Marmycin A. The reagent <<CellTiter-Blue®>> Reagent) (20 μl/well) was added after 24, 48, or 72 treatment hours, and the cells were incubated for one hour before fluorescence detection (560(20)Ex/590(10)Em) on a Perkin Elmer Wallac 1420 Victor2 Microplate Reader.

[5] = system: A2780 cells (ovarian cancer line); assay: Cell proliferation/viability assay (CellTiter-Blue) on A2780 cells; format: cell-based; details: Homo sapiens, at 72 hours
Method: as §5

[6] = system: HT1080 cells (fibrosarcoma line); assay: Cell viability assay (CellTiter-Blue) on HT1080 cells; format: cell-based
Method: as §5
The same protocol was followed to evaluate cell viability of HT1080 cells in the presence of compound 33 of Example 6 (called Oxamethoxymarmycin), doxorubicin or etoposide.

[7] = system: DNA-damage response (phosphorylation of H2AX on ser139, phosphorylation of P53, induction of P21); assay: Western Blot analysis of DNA-damage response; format: cell-based; details: cells treated as in Example 10
Method: The cells treated as indicated in Example 10 were washed twice in PBS and lysed with Laemmli buffer 2×. The cell extracts were brought to the boil for five minutes at 100° C. and quantified with a Nanodrop 2000 device (Thermal Scientific). 100 μg of protein lysate were separated with 4-20% Mini-PROTEAN® TGX Stain-Free™ gel (BioRad) and transferred onto a nitrocellulose membrane (Amersham). Stains were detected with different antibodies such as anti-β-actin (ab8226, Abcam), anti-p62 (610833, BD Transduction Laboratories™), anti-H2AX (PA1-14198, Thermal Scientific), anti-gH2AX (Ser139) (#2577, Cell Signaling), anti-p21, anti-p53 (1C12) (#2524, Cell Signaling), anti-p-p53, anti-LC3B (#2775, Cell Signaling), anti-BID, diluted to 1/1000 in 5% BSA, 0.1% Tween-20/TBS.

[8] = system: human breast, prostate, lung, colon, ovarian cancer lines and leukaemia; details: cited from earlier work
[9] = Homo sapiens, HT-1080, at 72 hours

Compound: COc1cccc2c1C(=O)c1c(O)c3c(c(O)c1C2=O)C[C@@](O)(C(=O)CO)C[C@@H]3O[C@H]1C[C@H](N)[C@H](O)[C@H](C)O1 [doxorubicin, reference compound]
IC50 [4]: 100 nM
IC50 [5]: 60 nM
IC50 [6, 9]: 35 nM
DNA-damage response (Western Blot) [7]: generates a DNA-damage response

Compound: Cc1ccc2c3c(ccc2c1)C(=O)c1c(ccc2c1NC1(C)CC2O[C@@H](C)[C@@H]1O)C3=O (stereo partly drawn) [marmycin A]
IC50 [4]: 10300 nM
IC50 [5]: 9800 nM
cell location (lysosomes of U2OS cells): not located at the cell nucleus but at the site of the lysosomes; also recorded: accumulates in the lysosomes
DNA-damage response (Western Blot) [7]: only scarcely damages caspase-dependent DNA
cytotoxic properties [8]: cytotoxic properties

Second part, led by results:

IC50 ([1]; Homo sapiens, 72 h treatment): 900 nM
IC50 ([2]; Homo sapiens, HMLER CD24- cancerous stem cells, 72 hours): 100 nM
IC50 ([3]; Homo sapiens, 72 hours): 98 nM
Compound: Cc1ccc2c3c(ccc2c1)C(=O)c1c(ccc2c1NC1(C)CC2O[C@@H](C)[C@@H]1OC(=O)CCC(=O)OC1O[C@@H]2O[C@@]4(C)CC[C@H]5[C@H](C)CC[C@@H]([C@H]1C)[C@@]25OO4)C3=O (stereo partly drawn) [artesumycin]
cytotoxic activity compared with other treatments [1]: higher than that of marmycin A and also higher than that of marmycin A combined with artesunate; also recorded: synergic effect
cell viability ([1]; concentration of 0.9 μm): less than 50%
cytotoxic activity compared with artesunate ([2]; HMLER CD24- cells): higher than that of artesunate
cell viability ([2]; HMLER CD24- cells, concentration of 1 μm, 72 hours): about 18%
cytotoxic activity compared with artesunate [3]: higher than that of artesunate
cell viability ([3]; concentration of 0.1 μm, 72 hours): about 44%
cell location (lysosomes of U2OS cells): accumulates in the lysosomes

IC50 [6, 9]: 500 nM
Compound: COc1cc([C@@H]2c3cc4c(cc3[C@@H](O[C@@H]3O[C@@H]5CO[C@@H](C)O[C@H]5[C@H](O)[C@H]3O)[C@H]3COC(=O)[C@H]23)OCO4)cc(OC)c1O [etoposide]

IC50 ([6]; at 72 hours): 75000 nM
Compound: Oxamethoxymarmycin
